We go through two compounds from patent US10724044B2, “Reversible genic male sterility in compositae” (priority 2013, dated 2020).

Entries after “also recorded” stand apart in the source; their conditions may differ.

The test system of assay [1] is homozygous mutant lettuce plant (Lactuca sativa), having a mutated version of the OPR3 gene. Kind of assay: Reversal of male sterility in homozygous OPR3 mutant lettuce by spraying young flower buds. The class given is in vivo. The following applies: for restoration of male fertility in the F2 generation: F2 of cross of NCIMB 42060 plants with wild type lettuce, treatment as in Example 1; for seed production through selfing: 200 μM spray on inflorescences from early bolting stage, versus mock-treated controls (FIG. 1). An excerpt: A mutant lettuce plant (Lactuca sativa), having a mutated version of the OPR3 gene, was obtained by means of chemical mutagenesis and subsequent TILLING screening of about 3,000 M2 plants.
Phenotypically this mutant lettuce plant was indistinguishable from wild type lettuce plants, when the mutation was present in a heterozygous state. […] The few pollen grains that developed in such homozygous mutants were not functional.
From the early bolting stage the inflorescences were sprayed 5 times per week, for a total of 3 weeks.

For assay [2], the system named is homozygous mutant endive plant (Cichorium endivia), having a mutated version of the OPR3 gene. As to the kind of experiment: Reversal of male sterility in homozygous OPR3 mutant endive by treating young flower buds. The class given is in vivo. Particulars: for restoration of male fertility in the F2 generation: F2 of cross of endive plants of the invention with wild type endive, treatment as in Example 3; for male fertility (functional pollen, seed set through self-pollination): homozygous mutants, controls remained male sterile; for male fertility (functional pollen, seed set through self-pollination) / flower colour of flowers developed from treated buds: 200 μM (0.2 mM) with 0.025% Zipper surfactant sprayed daily on young flower buds; for flower colour of flowers developed from treated buds: homozygous mutants (pale flowers untreated), about 3.5 months. An excerpt:
A mutant endive plant (Cichorium endivia), having a mutated version of the OPR3 gene, was obtained by means of chemical mutagenesis and subsequent TILLING screening of about 10,000 M2 plants.
Phenotypically this mutant endive plant was indistinguishable from wild type endive plants, when the mutation was present in a heterozygous state. […] The pollen grains that developed in such homozygous mutants were unable to germinate and therefore dysfunctional.
Blue was the wild type flower colour in this endive background.

Assay [3] has as its system Arabidopsis thaliana with mutations in the OPR3 gene. Particulars: Arabidopsis OPR3 mutants, flower buds treated; cited from earlier work.

In the case of `CC/C=C\C[C@H]1C(=O)CC[C@@H]1CC(=O)O` [jasmonic acid, (3R,7S)-jasmonic acid], the “restoration of male fertility in the F2 generation” value (from here on “restoration … in the F2 generation”) in assay [1] was “sufficient to restore male fertility”. Further, in assay [2], the “restoration … in the F2 generation” value is listed as “sufficient to restore male fertility” and the “male fertility (functional pollen, seed set through self-pollination)” value is reported as “had the same effect”.
With `CC/C=C\CC1C(=O)CCC1CC(=O)OC` (centres unmarked) [methyl jasmonate], the “restoration of male fertility” value in assay [3] is “could be restored”; in assay [1] (homozygous mutants, 200 μM (0.2 mM) aqueous solution plus 0.025% Zipper surfactant sprayed on young flower buds, 5 times per week for 3 weeks) it was “sufficient to restore male fertility”. For the same compound, the “restoration … in the F2 generation” value in assay [1] and in assay [2] was “sufficient to restore male fertility” in each case. Further, the “seed production through selfing” value in assay [1] (homozygous mutants) is given as “has produced seeds through selfing”; in assay [1] (homozygous mutants, listed as MeJA), “produced seeds in a subset of their flowers”. Also, the figures for the “flower colour of flowers developed from treated buds” value in assay [2] and in assay [2] (listed as MeJA) were “Its colour has changed to blue” and “developed into blue flowers”, respectively. Further, the “male fertility (functional pollen, seed set through self-pollination)” value is “it has become male-fertile” in assay [2]; “produced viable, functional pollen and were able to set seed through self-pollination; also recorded: could be overcome” in assay [2] (listed as MeJA). Also, the “effect of other application methods than spraying” value in assay [2] (solution painted onto the surface of young flower buds with a fine brush) is reported as “comparable effects”.
